Experiment [1] deals with T1, Oxysterols receptor LXR-beta (Homo sapiens, UniProt P55055).
T1 sequence (P55055 whole entry): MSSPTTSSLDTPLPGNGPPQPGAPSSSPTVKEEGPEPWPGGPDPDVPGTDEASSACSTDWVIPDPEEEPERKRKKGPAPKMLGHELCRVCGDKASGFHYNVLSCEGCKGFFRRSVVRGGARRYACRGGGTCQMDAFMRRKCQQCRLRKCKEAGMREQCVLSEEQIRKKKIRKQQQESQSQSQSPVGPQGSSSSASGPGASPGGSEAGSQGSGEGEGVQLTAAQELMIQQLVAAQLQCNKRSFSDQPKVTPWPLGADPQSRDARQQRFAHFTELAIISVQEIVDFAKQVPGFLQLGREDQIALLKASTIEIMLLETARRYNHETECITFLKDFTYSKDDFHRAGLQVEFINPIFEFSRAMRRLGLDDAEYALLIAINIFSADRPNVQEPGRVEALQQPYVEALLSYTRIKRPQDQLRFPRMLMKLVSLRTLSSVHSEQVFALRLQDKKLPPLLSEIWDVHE
It is filed as functional.

Experiment [2] concerns the target T2, Retinoic acid receptor beta (Homo sapiens, UniProt P10826).
T2 sequence (P10826 whole entry): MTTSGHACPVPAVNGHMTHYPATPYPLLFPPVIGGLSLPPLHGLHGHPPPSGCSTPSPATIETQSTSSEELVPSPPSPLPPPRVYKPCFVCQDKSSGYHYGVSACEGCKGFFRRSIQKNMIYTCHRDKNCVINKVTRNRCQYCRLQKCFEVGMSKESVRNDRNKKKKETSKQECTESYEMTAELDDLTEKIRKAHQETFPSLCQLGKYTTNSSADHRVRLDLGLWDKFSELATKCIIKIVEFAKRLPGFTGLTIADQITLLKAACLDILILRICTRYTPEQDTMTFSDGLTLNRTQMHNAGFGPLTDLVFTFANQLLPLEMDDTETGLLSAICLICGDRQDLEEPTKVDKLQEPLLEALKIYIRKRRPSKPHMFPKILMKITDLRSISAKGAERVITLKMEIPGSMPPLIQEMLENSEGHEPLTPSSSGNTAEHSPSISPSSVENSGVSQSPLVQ
The format is functional, cell-based.

The target in experiment [3] is T3, Bile acid receptor (Homo sapiens, UniProt Q96RI1).
T3 sequence (Q96RI1 whole entry): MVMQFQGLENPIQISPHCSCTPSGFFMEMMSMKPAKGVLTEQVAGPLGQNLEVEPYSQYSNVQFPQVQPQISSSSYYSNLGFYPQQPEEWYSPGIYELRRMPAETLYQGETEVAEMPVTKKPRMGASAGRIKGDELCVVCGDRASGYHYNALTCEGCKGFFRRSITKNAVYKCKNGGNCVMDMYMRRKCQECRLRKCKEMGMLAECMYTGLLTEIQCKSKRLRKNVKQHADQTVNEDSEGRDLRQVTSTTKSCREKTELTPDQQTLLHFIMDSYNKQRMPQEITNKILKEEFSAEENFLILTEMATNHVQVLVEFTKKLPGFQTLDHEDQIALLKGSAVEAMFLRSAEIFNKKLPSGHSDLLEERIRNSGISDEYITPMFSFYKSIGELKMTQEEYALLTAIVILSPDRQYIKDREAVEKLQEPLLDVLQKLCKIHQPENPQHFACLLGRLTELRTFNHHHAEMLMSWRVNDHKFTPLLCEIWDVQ
The format is functional.

Experiment [4] concerns the target T3, Bile acid receptor. The format is functional. The source holds these as a separate data set.
Experiment [5] concerns the target T4, Oxysterols receptor LXR-alpha (Homo sapiens, UniProt Q13133).
T4 sequence (Q13133 whole entry): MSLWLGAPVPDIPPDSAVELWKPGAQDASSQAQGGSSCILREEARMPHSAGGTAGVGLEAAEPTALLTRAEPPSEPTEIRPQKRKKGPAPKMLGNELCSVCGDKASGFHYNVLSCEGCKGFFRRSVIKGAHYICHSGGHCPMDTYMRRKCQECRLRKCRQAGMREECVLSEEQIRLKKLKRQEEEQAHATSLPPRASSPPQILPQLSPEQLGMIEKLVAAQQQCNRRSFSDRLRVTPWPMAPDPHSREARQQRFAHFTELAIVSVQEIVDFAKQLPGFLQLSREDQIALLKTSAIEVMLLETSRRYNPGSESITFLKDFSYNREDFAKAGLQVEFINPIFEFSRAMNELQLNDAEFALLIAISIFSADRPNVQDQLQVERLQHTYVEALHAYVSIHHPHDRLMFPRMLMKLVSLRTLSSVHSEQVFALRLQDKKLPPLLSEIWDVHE
It is filed as functional.

Structures are written as SMILES. Where only a bound is given, the exact number is not on record here.

One molecule from ChEMBL document CHEMBL5291721, “A preclinical secondary pharmacology resource illuminates target-adverse drug reaction associations of marketed drugs” (Nat Commun, 2023) can be followed below.

As a reminder, the AC50 is the concentration giving half of the maximal activity seen. Low readings indicate activity at low concentration, high ones activity only at high concentration.
Further: assay procedure not described here.

Regarding `CC(=O)N1CCN(c2ccc(OCC3COC(Cn4ccnc4)(c4ccc(Cl)cc4Cl)O3)cc2)CC1` (stereo not given) [KETOCONAZOLE], the AC50 in experiment [1] is 4.7 µM; in experiment [2] it was more than 30 µM; in experiment [3], more than 30 µM; in experiment [4], more than 10 µM; in experiment [5] it was more than 30 µM.
